Measured values published in US20260217701A1, “SELECTIVE BET INHIBITORS AND USES THEREOF” (Tay Therapeutics Limited, priority 2022, published 2026).
Values joined by “and” are separate entries in the source; they are usually repeats but may differ in a detail not shown here. Identical values can stand only once. Like-named read-outs stand apart in the source and are kept apart here.

Assay: Dog PK study #1 (Compound A IV and PO, propylene glycol formulation)
Type: in vivo, beagle dogs
Details: for Vd: read-out: Vss—obs
Excerpt: The purpose of this study was to examine the pharmacokinetics of Compound A in beagle dogs. Four beagle dog studies were undertaken, one where Compound A was formulated in a propylene glycol based formulation (Dog PK study #1-PO and IV), a second where Compound A was formulated in a HPBCD based formulation (Dog PK study #2-IV), a third where Compound A was formulated in a 5% DMSO/15% PEG-400/80% (10% VE-TPGS) formulation (Dog PK study #3-PO), and a fourth where Compound A was formulated in […]/15% PEG-400/80% (10% VE-TPGS) formulation (Dog PK study #4-PO).
For Dog PK study #1, two solutions of different concentrations of Compound A were prepared in 20% propylene glycol/20% Vitamin E TPGS/60% water as outlined in Table 2A in Experimental Method A. The solutions of Compound A in 20% propylene glycol/20% Vitamin E TPGS/60% water were prepared freshly prior to use. The Compound A solutions administered were then administered to animals either intravenously (IV) or orally (PO) and animals were then monitored over a 24 h period (Table 3B). Body weight was recorded prior to dosing, and detailed clinical observations were made prior to dosing and throughout the study, as needed.
Blood samples (~0.3 mL) were collected according to a schedule (shown below) by venipuncture of peripheral veins except for the dosing vein, and EDTA-K2 was used as anticoagulant. Within 30 minutes of collection, the samples were centrifuged at approximately 2000 times g-force for 10 minutes at 4° C. to obtain blood plasma. The plasma samples were immediately divided into two aliquots (~75 μL each), transferred to a cryogenic vial, and stored in a freezer at −75±15° C. prior to analysis.
Blood samples for IV were collected at 0.083, 0.25, 0.5, 1, 2, 4, 8, 24 h and blood samples for PO were collected at 0.25, 0.5, 1, 2, 4, 8, and 24 h following the initial dosing (0 h).
The concentration of Compound A in the blood plasma was determined through liquid chromatography-mass spectrometry (LC-MS). The experiments were conducted on a Shimadzu HPLC(DGU-20A5R; LC-30AD; SIL-30AC; Rack Changer II; CTO-30A; and CBM-20A) and AB API 5500+LC/MS/MS instrument with an Agilent Poroshell EC-C18 4 μm (50×2.1 mm) column. A gradient of 95% water (0.1% formic acid)/95% acetonitrile (0.1% formic acid) was used as the mobile phase. The sample injection volume was 10 μL, and the flow rate was 0.6 mL/min. The gathered data were used for pharmacokinetic calculations using T1/2, C0, AUClast, AUCinf, MRTinf, Cl, Vss, and Number of Points for Regression as parameters.
The desired serial concentrations of working solutions were achieved by diluting stock solution of analyte with 50% acetonitrile in water solution. 5 μL of working solutions (5, 10, 20, 50, 100, 500, 1000, 5000, 10000 ng/mL) were added to 50 μL of the blank Beagle Dogs plasma to achieve calibration standards of 0.5~1000 ng/ml (0.5, 1, 2, 5, 10, 50, 100, 500, 1000 ng/ml) in a total volume of 55 μL. Five quality control samples at 1 ng/ml, 2 ng/ml, 5 ng/ml, 50 ng/mL and 800 ng/ml for plasma were prepared independently of those used for the calibration curves. These QC samples were prepared on the day of analysis in the same way as calibration standards.
55 μL standards, 55 μL QC samples and 55 μL unknown samples (50 μl plasma with 5 μL blank solution were added to 200 μL of acetonitrile containing IS mixture (verapamil) for precipitating protein respectively. Then the samples were vortexed for 30 s. After centrifugation at 4° C., 3900 rpm for 15 min, the supernatant was diluted 3 times with water. 10 μL of diluted supernatant was injected into the LC/MS/MS system for quantitative analysis.

[1] = IV 1 mg/kg, individual animals, 1 mg/kg
[2] = beagle, dog, plasma, iv, 1 mg/kg, IV 1 mg/kg, individual animals, read-out: Plasma concentration
[3] = beagle, dog, plasma, iv, 1 mg/kg, IV 1 mg/kg, mean, read-out: Average plasma concentration
[4] = beagle, dog, plasma, iv, 1 mg/kg, IV 1 mg/kg, mean
[5] = beagle, dog, plasma, iv, 1 mg/kg, IV 1 mg/kg, individual animals
[6] = beagle, dog, plasma, po, 5 mg/kg, oral 5 mg/kg, individual animals, read-out: Plasma concentration
[7] = beagle, dog, plasma, po, 5 mg/kg, oral 5 mg/kg, mean, read-out: Average plasma concentration
[8] = beagle, dog, plasma, po, 5 mg/kg, oral 5 mg/kg, mean
[9] = beagle, dog, plasma, po, 5 mg/kg, oral 5 mg/kg, individual animals
[10] = oral 5 mg/kg, individual animals, 5 mg/kg

## Cn1cc(-c2ccccc2)c(-c2cn(C)c(=O)c3[nH]c(-c4cnn(C(F)(F)F)c4)cc23)cc1=O [Compound A, 6-methyl-4-(1-methyl-2-oxo-5-phenyl-1,2-dihydropyridin-4-yl)-2-(1-(trifluoromethyl)-1H-pyrazol-4-yl)-1,6-dihydro-7H-pyrrolo[2,3-c]pyridin-7-one]
[1]
  AUClast: 4746 ng·h/mL and 2876 ng·h/mL and 7862 ng·h/mL
  AUClast/D: 4746 (ng · h/mL)/(mg/kg) and 2876 (ng · h/mL)/(mg/kg) and 7862 (ng · h/mL)/(mg/kg)
  AUClnf: 4892 ng·h/mL and 2944 ng·h/mL and 8955 ng·h/mL
  AUC—%Extrap—obs: 2.98% and 2.32% and 12.2%
  C0: 1618 ng/mL and 1767 ng/mL
  CI_obs: 3.41 mL/min/kg and 5.66 mL/min/kg and 1.86 mL/min/kg
  MRTlnf—obs: 5.21 h and 4.15 h and 10.0 h
  T1/2: 5.23 h and 8.60 h
  Vss—obs: 1.41 L/kg and 1.12 L/kg
IV 1 mg/kg, mean
  AUClast/D: 5162 (ng · h/mL)/(mg/kg)
  AUC—%Extrap—obs: 5.8%
  CI_obs: 3.64 mL/min/kg
  MRTlnf—obs: 6.5 h
PO, all animals
  time over which plasma concentration increased after oral administration: 2 h
[2]
  concentration at 0.083 h: 1480 ng/mL
  concentration at 0.25 h: 1130 ng/mL
  concentration at 0.5 h: 971 ng/mL
  concentration at 1 h: 802 ng/mL
  concentration at 2 h: 594 ng/mL
[3]
  concentration at 0.083 h: 1480 ng/mL
  concentration at 0.25 h: 1130 ng/mL
  concentration at 0.5 h: 912 ng/mL
  concentration at 1 h: 764 ng/mL
  concentration at 2 h: 586 ng/mL
[4]
  concentration at 4 h: 293 ng/mL
  concentration at 8 h: 169 ng/mL
  concentration at 24 h: 38.7 ng/mL
  AUC: 5600 ng·h/mL
  AUC(0-t): 5160 ng·h/mL
  half-life: 6.37 h
  Vd: 1.2 L/kg
[5]
  half-life: 5.26 h
  Vd: 1.06 L/kg
beagle, dog, plasma, iv, 1 mg/kg, IV 1 mg/kg, individual animals, read-out: C0
  C0: 1690 ng/mL
beagle, dog, plasma, iv, 1 mg/kg, IV 1 mg/kg, mean, read-out: C0
  C0: 1690 ng/mL
[6]
  concentration at 0.25 h: 25.1 ng/mL
  concentration at 0.5 h: 147 ng/mL
[7]
  concentration at 0.25 h: 26.7 ng/mL
  concentration at 0.5 h: 127 ng/mL
  concentration at 1 h: 293 ng/mL
  concentration at 2 h: 435 ng/mL
[8]
  concentration at 4 h: 369 ng/mL
  concentration at 8 h: 123 ng/mL
  concentration at 24 h: 29.9 ng/mL
  AUC: 4270 ng·h/mL
  AUC(0-t): 3500 ng·h/mL
  half-life: 4.07 h
[9]
  AUC: 4520 ng·h/mL
  half-life: 4.54 h
beagle, dog, plasma, po, 5 mg/kg, oral 5 mg/kg, mean, read-out: Cmax
  Cmax: 435 ng/mL
beagle, dog, plasma, oral 5 mg/kg, individual animals
  Tmax: 2 h
[10]
  AUClast: 4398 ng·h/mL and 2122 ng·h/mL and 3976 ng·h/mL
  AUClast/D: 880 (ng · h/mL)/(mg/kg) and 424 (ng · h/mL)/(mg/kg) and 795 (ng · h/mL)/(mg/kg)
  AUClnf: 4019 ng·h/mL
  AUC—%Extrap—obs: 2.78% and 1.09%
  Cmax: 498 ng/mL and 228 ng/mL and 580 ng/mL
  F: 16.2% and 8.22% and 14.4%
  MRTlnf—obs: 6.47 h and 5.27 h
  T1/2: 3.61 h
Oral 5 mg/kg, mean
  AUClast/D: 700 (ng · h/mL)/(mg/kg)
  AUC—%Extrap—obs: 1.93%
  F: 12.9%
  MRTlnf—obs: 5.87 h
Overall statement on the four dog PK studies
  availability and tolerability: IV and orally available and well tolerated
